We go through 27 compounds from patent US20230135894A1, “MK2 DEGRADERS AND USES THEREOF” (Kymera Therapeutics, Inc., priority 2021, published 2023).

The target of experiment [1] is T1, MK2 (Homo sapiens, UniProt P49137). The experiment can be described thus: MK2 degradation in human SW1353 cells (MSD, 24 h). The class given is cell-based. Also noted: endogenous in cells; host or cells: SW-1353 (ATCC HTB-94); key to MK2 MSD SW 1353 24 h Dmax %: —: “-”=not tested or inactive. Conditions: for Dmax: read-out: MK2 MSD SW 1353 24 h Dmax %; for DC50: read-out: MK2 MSD SW1353 degradation 24 h GMean External Abs DC50. In short, it runs like this:
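SW1353 chondrosarcoma cells were treated with up to 10-point serial dilutions (0.1% DMSO) for 24 h at 37 °C, then lysed in RIPA buffer. MK2 levels were quantified by MSD sandwich immunoassay; DC50 came from a 4-parameter logistic fit normalised to DMSO-treated cells (high) and lysis buffer (low).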

Experiment [2] addresses T1, MK2. The experiment can be described thus: MK2 degradation in human THP-1 monocytic cells (MSD, 24 h). The class given is cell-based. Also noted: endogenous in cells. The settings on record: for Dmax: THP-1, THP-1 cells; for DC50: THP-1 cells, read-out: MK2 MSD THP-1 degradation 24 h GMean External Abs DC50. In short, it runs like this: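 THP-1 cells (200,000/well) treated 24 h at 37 °C with compound dilution series (up to 10 points, 0.1% DMSO). MK2 in RIPA lysates quantified by MSD sandwich immunoassay. DC50 from 4-parameter logistic fit, DMSO-treated cells as high and lysis buffer as low signal.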

SMILES strings stand for the structures.

T1 sequence (P49137 whole entry): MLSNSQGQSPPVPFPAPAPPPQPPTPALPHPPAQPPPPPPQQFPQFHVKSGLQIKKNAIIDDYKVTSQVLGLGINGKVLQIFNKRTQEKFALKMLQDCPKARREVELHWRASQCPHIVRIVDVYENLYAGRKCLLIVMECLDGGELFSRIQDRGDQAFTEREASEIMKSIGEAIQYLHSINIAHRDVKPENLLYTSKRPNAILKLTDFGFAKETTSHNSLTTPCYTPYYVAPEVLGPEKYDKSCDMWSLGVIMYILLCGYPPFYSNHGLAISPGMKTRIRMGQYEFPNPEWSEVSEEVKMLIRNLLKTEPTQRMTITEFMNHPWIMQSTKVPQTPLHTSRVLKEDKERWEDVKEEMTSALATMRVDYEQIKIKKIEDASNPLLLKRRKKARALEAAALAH

By Dmax is commonly meant the greatest extent of degradation seen. Broadly, the DC50 is the concentration at which degradation of the target reaches its halfway point. As for `C[C@@H]1CNc2c(sc3ccc4nc(N5CCC(N6CCC7(CCN(c8ccc9c(c8)n(C)c(=O)n9C8CCC(=O)NC8=O)CC7)C6)CC5)ccc4c23)C(=O)N1` (stereo partly drawn) [Compound I-410], in experiment [1], the Dmax is > 75% and the DC50 is < 1 nM. In addition, in experiment [2], the Dmax was > 75% and the DC50 was < 1 nM.
Regarding `C[C@@H]1CNc2c(sc3ccc4nc(N5CCCN(C6CC7(CCN(c8ccc9c(c8)n(C)c(=O)n9C8CCC(=O)NC8=O)CC7)C6)CC5)ccc4c23)C(=O)N1` (stereo partly drawn) [Compound I-411], the Dmax in experiment [1] and in experiment [2] was 50 to 75% each time. The results for the DC50 in experiment [1] and in experiment [2] were 1 to 10 nM and 10 to 100 nM, respectively.
`C[C@@H]1CN(C)c2c(sc3ccc4nc(-c5ccc(N6CCN(CC7CN(c8ccc9c(c8)n(C)c(=O)n9C8CCC(=O)NC8=O)C7)CC6)nc5)ccc4c23)C(=O)N1` (stereo partly drawn) [Compound I-412]: in experiment [1], the Dmax is > 75% and the 50% degradation concentration (DC50) is < 1 nM. Further, in experiment [2], the maximal degradation (Dmax) is > 75% and the DC50 is < 1 nM.
Regarding `C[C@@H]1CN(C)c2c(sc3ccc4nc(-c5ccc(N6CCN(CCc7cccc8c7n(C)c(=O)n8C7CCC(=O)NC7=O)CC6)cc5)ccc4c23)C(=O)N1` (stereo partly drawn) [Compound I-413], in experiment [1], the Dmax was > 75% and the DC50 lay within 1 to 10 nM. Besides, in experiment [2], the Dmax was > 75% and the DC50 is < 1 nM.
Consider `C[C@@H]1CN(C)c2c(sc3ccc4nc(-c5ccc(N6CCN(CCc7cccc8c7n(C)c(=O)n8C7CCC(=O)NC7=O)CC6)nc5)ccc4c23)C(=O)N1` (stereo partly drawn) [Compound I-414], for which, in experiment [1], the Dmax was > 75% and the DC50 was < 1 nM. Further, in experiment [2], the Dmax is > 75% and the DC50 was in the range of 1 to 10 nM.
In the case of `Cn1c(=O)n(C2CCC(=O)NC2=O)c2ccc(N3CC(CN4CCN(c5ccc(-c6cc(-c7cc8c([nH]7)C7(CCCC7)CNC8=O)ccn6)cc5)CC4)C3)cc21` (stereo not drawn) [Compound I-415], the Dmax in experiment [1] and in experiment [2] was > 75% in each case. Further, the 50% degradation concentration (DC50) in experiment [1] and in experiment [2] was < 1 nM in each case.
As for `C[C@@H]1Cc2oc(-c3ccnc(-c4ccc(N5CCN(CC6CCN(c7cccc8c7n(C)c(=O)n8C7CCC(=O)NC7=O)CC6)CC5)nc4)c3)cc2C(=O)N1` (stereo partly drawn) [Compound I-416], in experiment [1], the Dmax fell in the range of 50 to 75% and the DC50 lay in the range of 10 to 100 nM. For the same compound, in experiment [2], the Dmax was < 50% and the DC50 is > 100 nM.
The corresponding values for `C[C@@H]1Cc2oc(-c3ccnc(-c4ccc(N5CCN(CC6CN(c7ccc8c(c7)n(C)c(=O)n8C7CCC(=O)NC7=O)C6)CC5)nc4)c3)cc2C(=O)N1` (stereo partly drawn) [Compound I-417] are > 75%, < 1 nM, > 75% and 1 to 10 nM.
Consider `Cn1c(=O)n(C2CCC(=O)NC2=O)c2cccc(N3CC(N4CCN(c5ccc(-c6cc(-c7cc8c([nH]7)C7(CCCC7)CNC8=O)ccn6)cc5)CC4)C3)c21` (stereo not drawn) [Compound I-418], for which, in experiment [1], the Dmax is > 75% and the DC50 was < 1 nM. Further, in experiment [2], the maximal degradation (Dmax) was > 75% and the DC50 lay within 1 to 10 nM.
Consider `Cn1c(=O)n(C2CCC(=O)NC2=O)c2cccc(N3CC(N4CCN(c5ccc(-c6cc(-c7cc8c([nH]7)C7(CC7)CNC8=O)ccn6)cc5)CC4)C3)c21` (stereo not drawn) [Compound I-419], for which, in experiment [1], the greatest degradation seen (Dmax) is > 75% and the half-maximal degradation concentration (DC50) is < 1 nM. In experiment [2], the Dmax was > 75% and the DC50 was < 1 nM.
`C[C@@H]1CNc2c(sc3ccc4nc(-c5ccc(N6CCN(CC7CCN(c8cccc(C9CCC(=O)NC9=O)c8)CC7)CC6)nc5)ccc4c23)C(=O)N1` (stereo partly drawn) [Compound I-420]: in experiment [1], the Dmax is > 75% and the DC50 lay within 1 to 10 nM. Moreover, in experiment [2], the Dmax is > 75% and the DC50 lay within 1 to 10 nM.
For `C[C@@H]1CNc2c(sc3ccc4nc(-c5ccc(N6CCN(CC7CCN(c8ccc(C9CCC(=O)NC9=O)cc8)CC7)CC6)nc5)ccc4c23)C(=O)N1` (stereo partly drawn) [Compound I-421], the Dmax in experiment [1] and in experiment [2] was > 75% each time. For the same compound, the DC50 in experiment [1] and in experiment [2] was 1 to 10 nM throughout.
As for `Cn1c(=O)n(C2CCC(=O)NC2=O)c2ccc(N3CC(CN4CCN(c5ccc(-c6cc(-c7cc8c([nH]7)C7(CCCC7)CNC8=O)ccn6)c(F)c5)CC4)C3)cc21` (stereo not drawn) [Compound I-422], the Dmax in experiment [1] and in experiment [2] was > 75% throughout. Besides, the DC50 in experiment [1] and in experiment [2] was < 1 nM throughout.
Take `Cn1c(=O)n(C2CCC(=O)NC2=O)c2ccc(N3CC(CN4CCN(c5ccc(-c6cc(-c7cc8c([nH]7)CCNC8=O)ccn6)c(F)c5)CC4)C3)cc21` (stereo not drawn) [Compound I-423]: in experiment [1], the Dmax was > 75% and the DC50 is < 1 nM. Besides, in experiment [2], the greatest degradation seen (Dmax) is > 75% and the DC50 was < 1 nM.
Turning to `Cn1c(=O)n(C2CCC(=O)NC2=O)c2ccc(N3CCC(CN4CCN(c5ccc(-c6cc(-c7cc8c([nH]7)C7(CCCC7)CNC8=O)ccn6)c(F)c5)CC4)CC3)cc21` (stereo not drawn) [Compound I-424], the greatest degradation seen (Dmax) in experiment [1] and in experiment [2] was > 75% in each case. Further, the DC50 in experiment [1] is < 1 nM; in experiment [2] it was 1 to 10 nM.
Take `Cn1c(=O)n(C2CCC(=O)NC2=O)c2ccc(N3CC(CN4CCN(c5ccc(-c6cc(-c7cc8c([nH]7)C7(CC7)CNC8=O)ccn6)c(F)c5)CC4)C3)cc21` (stereo not drawn) [Compound I-425]: in experiment [1], the Dmax was > 75% and the DC50 was < 1 nM. In addition, in experiment [2], the Dmax was > 75% and the DC50 is < 1 nM.
As for `Cn1c(=O)n(C2CCC(=O)NC2=O)c2ccc(N3CC(CN4CCN(c5ccc(-c6nccc(-c7cc8c([nH]7)C7(CC7)CNC8=O)n6)cc5)CC4)C3)cc21` (stereo not drawn) [Compound I-426], in experiment [1], the Dmax was > 75% and the DC50 was < 1 nM. In experiment [2], the Dmax is > 75% and the DC50 is < 1 nM.
For the compound `Cn1c(=O)n(C2CCC(=O)NC2=O)c2ccc(N3CCC(CN4CCN(c5ccc(-c6nccc(-c7cc8c([nH]7)CCNC8=O)n6)cc5)CC4)CC3)cc21` (stereo not drawn) [Compound I-427], in experiment [1], the greatest degradation seen (Dmax) is > 75% and the DC50 is < 1 nM. Besides, in experiment [2], the Dmax was > 75% and the DC50 was < 1 nM.
With `Cn1c(=O)n(C2CCC(=O)NC2=O)c2ccc(N3CCC(CN4CCN(c5ccc(-c6nccc(-c7cc8c([nH]7)C7(CC7)CNC8=O)n6)cc5)CC4)CC3)cc21` (stereo not drawn) [Compound I-428], in experiment [1], the Dmax was > 75% and the DC50 is < 1 nM. Moreover, in experiment [2], the Dmax is > 75% and the 50% degradation concentration (DC50) was in the range of 1 to 10 nM.
With `Cn1c(=O)n(C2CCC(=O)NC2=O)c2ccc(N3CCC(CN4CCN(c5ccc6oc(-c7cc(Nc8ccnc(N)n8)cc8cn[nH]c78)cc6c5)CC4)CC3)cc21` (stereo not drawn) [Compound I-429], in experiment [1], the Dmax was < 50% and the DC50 is > 100 nM. In addition, in experiment [2], the Dmax was < 50% and the DC50 was > 100 nM.
Turning to `COc1ccc2c(c1CCN1CCN(c3ccc(-c4cc(-c5cc6c([nH]5)C5(CC5)CNC6=O)ccn4)cc3)CC1)n(C)c(=O)n2C1CCC(=O)NC1=O` (stereo not drawn) [Compound I-430], the Dmax in experiment [1] and in experiment [2] was > 75% each time. Moreover, the DC50 in experiment [1] and in experiment [2] was < 1 nM throughout.
As for `Cn1c(=O)n(C2CCC(=O)NC2=O)c2cccc(CCN3CCN(c4ccc(-c5nccc(-c6cc7c([nH]6)C6(CC6)CNC7=O)c5F)cc4)CC3)c21` (stereo not drawn) [Compound I-431], in experiment [1], the Dmax lay in the range of 50 to 75% and the DC50 lay within 10 to 100 nM. Besides, in experiment [2], the Dmax is < 50% and the DC50 was > 100 nM.
In the case of `COc1cc(-c2ccc3c(ccc4sc5c(c43)NC[C@@H](C)NC5=O)n2)c(C)cc1N1CCN(CC2CCN(c3ccc4c(c3)n(C)c(=O)n4C3CCC(=O)NC3=O)CC2)CC1` (stereo partly drawn) [Compound I-432], in experiment [1], the Dmax was > 75% and the 50% degradation concentration (DC50) is < 1 nM. Moreover, in experiment [2], the Dmax fell in the range of 50 to 75% and the half-maximal degradation concentration (DC50) is 10 to 100 nM.
Take `C[C@@H]1CNc2c(sc3ccc4nc(N5CC6CCC(C5)N6CC5CCN(c6ccc7c(c6)n(C)c(=O)n7C6CCC(=O)NC6=O)CC5)ccc4c23)C(=O)N1` (stereo partly drawn) [Compound I-433]: in experiment [1], the Dmax is < 50% and the DC50 is > 100 nM. Besides, in experiment [2], the Dmax is < 50% and the DC50 was > 100 nM.
`C[C@@H]1CNc2c(sc3ccc4nc(N5C6CCC5CN(CC5CCN(c7ccc8c(c7)n(C)c(=O)n8C7CCC(=O)NC7=O)CC5)C6)ccc4c23)C(=O)N1` (stereo partly drawn) [Compound I-434]: in experiment [1], the Dmax is < 50% and the DC50 is > 100 nM. Besides, in experiment [2], the Dmax is < 50% and the DC50 is > 100 nM.
With `C[C@@H]1CNc2c(sc3ccc4nc(N5C6CCC5CN(CC5CCN(c7cccc8c7n(C)c(=O)n8C7CCC(=O)NC7=O)CC5)C6)ccc4c23)C(=O)N1` (stereo partly drawn) [Compound I-435], in experiment [1], the “MK2 MSD SW 1353 24 h Dmax %” value was “—” and the DC50 is > 100 nM. For the same compound, in experiment [2], the Dmax is < 50% and the DC50 was > 100 nM.
Consider `C[C@@H]1CNc2c(sc3ccc4nc(N5CC6CCC(C5)N6CC5CCN(c6cccc7c6n(C)c(=O)n7C6CCC(=O)NC6=O)CC5)ccc4c23)C(=O)N1` (stereo partly drawn) [Compound I-436], for which, in experiment [1], the “MK2 MSD SW 1353 24 h Dmax %” value is “—” and the DC50 is > 100 nM. In experiment [2], the Dmax was < 50% and the DC50 was > 100 nM.
